Columns and labels:
Format in all cases: cell-based
[1] = test system: panel of 48 to 60 cell lines; assay: 5×4 combination screen with SR16388; synergism hit rate by algorithm (Z score); conditions: in combination with SR16388, all 20 (5×4) dose combinations
Method: (§1) SR16388 was synthesized in house.
5) A “combination score” was assigned to each specific combination (Ca1b1x): C=1 if Za1b1x>3*SD and C=0 if Za1b1x≦3*SD score);
6) Hit rate of each combination was calculated by comparing the sum of the combination scores of all 20 (5×4) dose combinations with all cell lines to the total number of data points of that specific combination;
7) Hit rate were ranked from high to low to identify potential synergistic combinations.

[2] = test system: ACHN; assay: 11×7 synergism hit rate; conditions: Renal Cancer ACHN, combination with SR16388
Excerpt: as §1
(§2) Within the same type of cancer cells, some cell lines have more synergistic hits than others. Melanoma and breast cancer cell lines had the highest hit rate.

[3] = test system: COLO205; assay: 11×7 synergism hit rate; conditions: Colon Cancer COLO205, combination with SR16388
Excerpt: as §1, §2

[4] = test system: DU145; assay: 11×7 synergism hit rate; conditions: Prostate Cancer DU145, combination with SR16388
Excerpt: as §1, §2

[5] = test system: HCT116; assay: 11×7 synergism hit rate; conditions: Colon Cancer HCT116, combination with SR16388
Excerpt: as §1, §2

[6] = test system: HOP92; assay: 11×7 synergism hit rate; conditions: NSCLC HOP92, combination with SR16388
Excerpt: as §1, §2

[7] = test system: IGROV1; assay: 11×7 synergism hit rate; conditions: Ovarian Cancer IGROV1, combination with SR16388
Excerpt: as §1, §2

[8] = test system: LOXIMVI; assay: 11×7 synergism hit rate; conditions: Melanoma LOXIMVI, combination with SR16388
Excerpt: as §1, §2

[9] = test system: NCIH460; assay: 11×7 synergism hit rate; conditions: NSCLC NCIH460, combination with SR16388
Excerpt: as §1, §2

[10] = test system: OVCAR3; assay: 11×7 synergism hit rate; conditions: Ovarian Cancer OVCAR3, combination with SR16388
Excerpt: as §1, §2

[11] = test system: OVCAR5; assay: 11×7 synergism hit rate; conditions: Ovarian Cancer OVCAR5, combination with SR16388
Excerpt: as §1, §2

[12] = test system: PCS; assay: 11×7 synergism hit rate; conditions: Prostate Cancer PCS, combination with SR16388
Excerpt: as §1, §2

[13] = test system: RPMI8226; assay: 11×7 synergism hit rate; conditions: Leukemia RPMI8226, combination with SR16388
Excerpt: as §1, §2

[14] = test system: SF268; assay: 11×7 synergism hit rate; conditions: CNS Cancer SF268, combination with SR16388
Excerpt: as §1, §2

[15] = test system: SF539; assay: 11×7 synergism hit rate; conditions: CNS Cancer SF539, combination with SR16388
Excerpt: as §1, §2

[16] = test system: SKMEL28; assay: 11×7 synergism hit rate; conditions: Melanoma SKMEL28, combination with SR16388
Excerpt: as §1, §2

[17] = test system: SKMEL2; assay: 11×7 synergism hit rate; conditions: Melanoma SKMEL2, combination with SR16388
Excerpt: as §1, §2

[18] = test system: SKMEL5; assay: 11×7 synergism hit rate; conditions: Melanoma SKMEL5, combination with SR16388
Excerpt: as §1, §2

[19] = test system: SNB19; assay: 11×7 synergism hit rate; conditions: CNS Cancer SNB19, combination with SR16388
Excerpt: as §1, §2

[20] = test system: SNB75; assay: 11×7 synergism hit rate; conditions: CNS Cancer SNB75, combination with SR16388
Excerpt: as §1, §2

[21] = test system: SW620; assay: 11×7 synergism hit rate; conditions: Colon Cancer SW620, combination with SR16388
Excerpt: as §1, §2

[22] = test system: U251; assay: 11×7 synergism hit rate; conditions: CNS Cancer U251, combination with SR16388
Excerpt: as §1, §2

[23] = test system: cancer cell lines; assay: Combination cell viability assay, general observations on ratios and confirmed synergy; conditions: for interaction with SR16388 (confirmed): in combination with SR16388
Method: Cells were treated with compounds alone or in combination for three days and CellTiter-Glo® Luminescent Cell Viability Assay (Promega Corp.) was used as the endpoint to measure cell viability. […] Cells were harvested on Day-1 (FIG. 1A) and re-supspended to the corresponding seeding density and seeded with Wellmate (ThermoFisher) to 384 plates (BD or GBO). […] Master plates were made with Janus (PerkinElmer), then further diluted and added to the cell plates with Matrix Platemate (Thermo) on Day 0. CellTiter-Glo® Luminescent Cell Viability Assay (Promega Corp.) was used to measure ATP as an indicator of viable cells on Day 3 using Envision (PerkinElmer) and back up reader Analyst HT (MDS) and Gen5 (BioTek). Relative Luminescent Units (RLU) were plotted against corresponding drug concentrations and fitted with standard four parameter sigmoidal curve with custom coded R program or Calcusyn (Biosoft, Cambridge, UK).

| Compound | % Hit rate [2] [%] | % Hit rate [3] [%] | % Hit rate [4] [%] | % Hit rate [6] [%] | % Hit rate [7] [%] | % Hit rate [8] [%] | % Hit rate [9] [%] | % Hit rate [10] [%] | % Hit rate [11] [%] | % Hit rate [12] [%] | % Hit rate [13] [%] | % Hit rate [14] [%] | % Hit rate [15] [%] | % Hit rate [16] [%] | % Hit rate [17] [%] | % Hit rate [18] [%] | % Hit rate [19] [%] | % Hit rate [20] [%] | % Hit rate [21] [%] | % Hit rate [22] [%] | further results |
| --- | --- | --- | --- | --- | --- | --- | --- | --- | --- | --- | --- | --- | --- | --- | --- | --- | --- | --- | --- | --- | --- |
| CC(=O)O[C@@]12CO[C@@H]1C[C@H](O)[C@@]1(C)C(=O)[C@H](O)C3=C(C)[C@@H](OC(=O)[C@H](O)[C@@H](NC(=O)OC(C)(C)C)c4ccccc4)C[C@@](O)([C@@H](OC(=O)c4ccccc4)[C@H]21)C3(C)C [Docetaxel] | 4 | 35 | 1 | 4 | 3 | 8 | 31 | 8 | 1 | 3 | 1 | 18 | 13 | 31 | 12 | 10 | 18 | 5 | 8 | 12 | % hit/combo [1]: 0.58%; % Hit rate [5]: 18%; interaction with SR16388 (confirmed) [23]: synergistic anti-proliferation effect |
| CC(=O)O[C@H]1C(=O)[C@@]2(C)[C@H]([C@H](OC(=O)c3ccccc3)[C@]3(O)C[C@H](OC(=O)[C@H](O)[C@@H](NC(=O)c4ccccc4)c4ccccc4)C(C)=C1C3(C)C)[C@]1(OC(C)=O)CO[C@@H]1C[C@@H]2O [Paclitaxel] | 14 | 17 | 3 | 10 | 18 | 13 | 35 | 8 | 6 | 0 | 5 | 22 | 19 | 35 | 29 | 12 | 27 | 13 | 9 | 12 | interaction with SR16388 (confirmed) [23]: synergistic anti-proliferation effect; interaction with more paclitaxel in the mixture ([23]; more paclitaxel than SR16388:Paclitaxel 67:33): antagonist interactions |
| CC[C@]1(O)C[C@@H]2CN(CCc3c([nH]c4ccccc34)[C@@](C(=O)OC)(c3cc4c(cc3OC)N(C)[C@H]3[C@@](O)(C(=O)OC)[C@H](OC(C)=O)[C@]5(CC)C=CCN6CC[C@]43[C@@H]65)C2)C1 [Vinblastine] | 3 | 12 | 0 | 6 | 0 | 1 | 16 | 4 | 0 | 1 | 0 | 6 | 8 | 8 | 3 | 5 | 12 | 3 | 8 | 0 | % Hit rate [5]: 6% |
| CC[C@]1(O)C[C@H]2CN(CCc3c([nH]c4ccccc34)[C@@](C(=O)OC)(c3cc4c(cc3OC)N(C=O)[C@H]3[C@@](O)(C(=O)OC)[C@H](OC(C)=O)[C@]5(CC)C=CCN6CC[C@]43[C@@H]65)C2)C1 [Vincristine] | 8 | 14 | 1 | 8 | 8 | 5 | 19 | 3 | 1 | 1 | 0 | 18 | 12 | 22 | 25 | 14 | 27 | 9 | 5 | 4 | % hit/combo [1]: 2.08%; % Hit rate [5]: 6%; interaction with SR16388 (confirmed) [23]: synergistic anti-proliferation effect |
